# PubChem BioAssay AID270 (DTP/NCI, 2004)
# “And” between values parts separate entries of the source, which are not always exact repeats. Identical values can stand only once. Records with an inconclusive call do not appear.
# Test system: BDF1 mice, s.c. Lewis lung carcinoma, T/C %
# Assay: NCI In Vivo Anticancer Drug Screen. Data for tumor model Lewis Lung Carcinoma (subcutaneous) in B6D2F1 (BDF1) mice
# Outline: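 First, mice carry a transplantable tumor. Next, groups receive either compound or vehicle. Finally, survival or tumor dimensions in the dosed animals are divided by the corresponding control figure.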
# [1] = endpoint: mean tumor weight, dose: 10.0 mg/kg/injection, schedule: Q01DX011 (ip), vehicle: saline, higher = larger tumour
smiles,measurement,setting,value
CSCS(=O)C[C@H](CO)NC(=O)/C=C/c1c(C)[nH]c(=O)[nH]c1=O (some centres undefined),T/C,"endpoint: median survival time, dose: 0.08 mg/kg/injection, schedule: Q01DX009 (ip), vehicle: water, higher = longer survival",94 % of control
same,T/C,"endpoint: median survival time, dose: 0.15 mg/kg/injection, schedule: Q01DX009 (ip), vehicle: water, higher = longer survival",109 % of control
same,T/C,"endpoint: median survival time, dose: 0.3 mg/kg/injection, schedule: Q01DX009 (ip), vehicle: water, higher = longer survival",97 % of control
CC1CCOS(=O)O1 (centres undefined),T/C,[1],66 % of control
same,T/C,"endpoint: mean tumor weight, dose: 20.0 mg/kg/injection, schedule: Q01DX011 (ip), vehicle: saline, higher = larger tumour",63 % of control
same,T/C,"endpoint: mean tumor weight, dose: 40.0 mg/kg/injection, schedule: Q01DX011 (ip), vehicle: saline, higher = larger tumour",65 % of control
CCCCOB(/C=C/Sc1ccccc1)OCCCC,T/C,"endpoint: median survival time, dose: 50.0 mg/kg/injection, schedule: Q01DX009 (ip), vehicle: saline with Tween-80, higher = longer survival",95 % of control
CCSC(=O)N1c2ccc(OC)cc2C=CC1C#N (centres undefined),T/C,"endpoint: median survival time, dose: 100.0 mg/kg/injection, schedule: Q01DX009 (ip), vehicle: saline with Tween-80, higher = longer survival",122 % of control
same,T/C,"endpoint: median survival time, dose: 200.0 mg/kg/injection, schedule: Q01DX009 (ip), vehicle: saline with Tween-80, higher = longer survival",102 % of control
same,T/C,"endpoint: median survival time, dose: 400.0 mg/kg/injection, schedule: Q01DX009 (ip), vehicle: saline with Tween-80, higher = longer survival",108 % of control
Nc1ccc(Cl)c(N)c1,T/C,"endpoint: mean tumor weight, dose: 22.0 mg/kg/injection, schedule: Q01DX011 (ip), vehicle: saline, higher = larger tumour",115 % of control
same,T/C,"endpoint: mean tumor weight, dose: 33.0 mg/kg/injection, schedule: Q01DX011 (ip), vehicle: saline, higher = larger tumour",117 % of control
same,T/C,"endpoint: mean tumor weight, dose: 50.0 mg/kg/injection, schedule: Q01DX011 (ip), vehicle: saline, higher = larger tumour",105 % of control
CC(C)=CCC1=C(O)c2ccccc2C(=O)C1=O,T/C,"endpoint: mean tumor weight, dose: 45.0 mg/kg/injection, schedule: Q01DX011 (ip), vehicle: water, higher = larger tumour",71 % of control
same,T/C,"endpoint: mean tumor weight, dose: 67.0 mg/kg/injection, schedule: Q01DX011 (ip), vehicle: water, higher = larger tumour",85 % of control
same,T/C,"endpoint: mean tumor weight, dose: 100.0 mg/kg/injection, schedule: Q01DX011 (ip), vehicle: water, higher = larger tumour",93 % of control
CCOCCCN,T/C,"endpoint: mean tumor weight, dose: 44.0 mg/kg/injection, schedule: Q01DX011 (ip), vehicle: saline, higher = larger tumour",106 % of control
same,T/C,"endpoint: mean tumor weight, dose: 66.0 mg/kg/injection, schedule: Q01DX011 (ip), vehicle: saline, higher = larger tumour",97 % of control
same,T/C,"endpoint: mean tumor weight, dose: 100.0 mg/kg/injection, schedule: Q01DX011 (ip), vehicle: saline, higher = larger tumour",123 % of control
same,T/C,"endpoint: mean tumor weight, dose: 148.0 mg/kg/injection, schedule: Q01DX011 (ip), vehicle: saline, higher = larger tumour",101 % of control
COc1cc(C=Nc2ccc(-c3nc(Cc4ccccc4)sc3C)cc2)ccc1N(CCCl)CCCl,T/C,"endpoint: median survival time, dose: 12.5 mg/kg/injection, schedule: Q01DX009 (ip), vehicle: Klucel (hydroxypropylcellulose) (HPC), higher = longer survival",90 % of control
same,T/C,"endpoint: median survival time, dose: 25.0 mg/kg/injection, schedule: Q01DX009 (ip), vehicle: Klucel (hydroxypropylcellulose) (HPC), higher = longer survival",110 % of control
CC(C)(C)C1CCC(NC(=O)N(CCCl)N=O)CC1 (centres undefined),T/C,"endpoint: median survival time, dose: 140.0 mg/kg/injection, schedule: Q01DX001 (ip), vehicle: gum acacia, higher = longer survival",118 % of control
same,T/C,"endpoint: median survival time, dose: 315.0 mg/kg/injection, schedule: Q01DX001 (ip), vehicle: gum acacia, higher = longer survival",121 % of control
COc1cc2nccc3c4ccccc4n(c1=O)c23,T/C,"endpoint: median survival time, dose: 50.0 mg/kg/injection, schedule: Q01DX009 (ip), vehicle: Klucel (hydroxypropylcellulose) (HPC), higher = longer survival",114 % of control
same,T/C,"endpoint: median survival time, dose: 100.0 mg/kg/injection, schedule: Q01DX009 (ip), vehicle: Klucel (hydroxypropylcellulose) (HPC), higher = longer survival",110 % of control
same,T/C,"endpoint: median survival time, dose: 200.0 mg/kg/injection, schedule: Q01DX009 (ip), vehicle: Klucel (hydroxypropylcellulose) (HPC), higher = longer survival",120 % of control
CC(=O)OC1CCC(NC(=O)N(CCF)N=O)CC1 (centres undefined),T/C,"endpoint: median survival time, dose: 24.0 mg/kg/injection, schedule: Q01DX001 (ip), vehicle: saline with Tween-80, higher = longer survival",100 % of control
same,T/C,"endpoint: median survival time, dose: 36.0 mg/kg/injection, schedule: Q01DX001 (ip), vehicle: saline with Tween-80, higher = longer survival",102 % of control
NC(=O)NC1NC(=O)NC1=O (centres undefined),T/C,"endpoint: mean tumor weight, dose: 15.6 mg/kg/injection, schedule: Q01DX011 (ip), vehicle: saline, higher = larger tumour",67 % of control
same,T/C,"endpoint: mean tumor weight, dose: 31.3 mg/kg/injection, schedule: Q01DX011 (ip), vehicle: saline, higher = larger tumour",97 % of control
same,T/C,"endpoint: mean tumor weight, dose: 62.5 mg/kg/injection, schedule: Q01DX011 (ip), vehicle: saline, higher = larger tumour",69 % of control and 76 % of control
same,T/C,"endpoint: mean tumor weight, dose: 125.0 mg/kg/injection, schedule: Q01DX011 (ip), vehicle: saline, higher = larger tumour",106 % of control
same,T/C,"endpoint: mean tumor weight, dose: 250.0 mg/kg/injection, schedule: Q01DX011 (ip), vehicle: saline, higher = larger tumour",103 % of control
same,T/C,"endpoint: mean tumor weight, dose: 500.0 mg/kg/injection, schedule: Q01DX011 (ip), vehicle: saline, higher = larger tumour",101 % of control
CC1OC(O[C@@H]2C=C3CC[C@@H]4[C@H](CC[C@]5(C)[C@@H](c6ccc(=O)oc6)CC[C@]45O)[C@@]3(C)CC2)C(O)C(O)C1O (some centres undefined),T/C,"endpoint: mean tumor weight, dose: 1.25 mg/kg/injection, schedule: Q01DX011 (ip), vehicle: saline, higher = larger tumour",114 % of control
same,T/C,"endpoint: mean tumor weight, dose: 2.5 mg/kg/injection, schedule: Q01DX011 (ip), vehicle: saline, higher = larger tumour",90 % of control
same,T/C,"endpoint: mean tumor weight, dose: 5.0 mg/kg/injection, schedule: Q01DX011 (ip), vehicle: saline, higher = larger tumour",64 % of control
same,T/C,[1],83 % of control
